Where two headings read alike, the source gives them in different places.
Columns and labels:
[1] = system: human SKM-1 acute myeloid leukemia cells; experiment: SKM-1 antiproliferation cell-based assay (ATPlite); conditions: Homo sapiens
Summary of the method: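 Log-phase cells in RPMI 1640/15% FBS were seeded at 34722 cells/mL and exposed for 4 days to nine-concentration DMSO serial dilutions in triplicate. Viability was read as ATP luminescence (ATPlite 1step), and IC50 values came from variable-slope non-linear regression.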

[2] = molecular target: T1, human BRD4 bromodomain II (Homo sapiens, UniProt O60885); experiment: Bromodomain binding assay (AlphaScreen), BRD4 BDII
T1 construct: human BRD4 bromodomain II [based on Genbank NM_058243, residues 349-460]; host or cells: E. coli
Summary of the method: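 Inhibition of acetyl-H4 peptide binding to human BRD4 bromodomains is measured by bead-based proximity (AlphaScreen) in pH 7.5 HEPES buffer containing 0.05% CHAPS and 0.1% BSA. Ten compound concentrations in 3-fold steps give competitive binding IC50s.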

[3] = SKM-1, SKM-1 antiproliferation assay
[4] = BRD4 BDII AlphaScreen assay, read-out: BRD4 BD2 IC50
[5] = SKM-1, 96 h, SKM-1 antiproliferation assay, 4 days, Table C2
[6] = AlphaScreen assay, Table C2, read-out: BRD4 BDII IC50

Row | Structure (SMILES) | GI50 [1, 3] [nM] | IC50 [2, 4] [nM] | GI50 [1, 5] [nM] | IC50 [2, 6] [nM]
1 | Cn1ccn(-c2c(O)cc(-c3cc(F)cc(-c4cccc(N5CCN(C(C)(C)C)CC5)c4)c3O)cc2Cl)c1=O [Example 952, 1-(3″-(4-(tert-butyl)piperazin-1-yl)-3-chloro-5′-fluoro-2′,5-dihydroxy-[1,1′:3′,1″-terphenyl]-4-yl)-3-methyl-1H-imidazol-2(3H)-one] | 300 to 3000 | > 100 |  | 
2 | CC(C)N1CCN(c2cc(F)cc(-c3cc(F)cc(-c4ccc(-n5ccn(C)c5=O)c(Cl)c4)c3O)c2)CC1 [Example 713, 1-(3-chloro-3″,5′-difluoro-2′-hydroxy-5″-(4-isopropylpiperazin-1-yl)-[1,1′:3′,1″-terphenyl]-4-yl)-3-methyl-1H-imidazol-2(3H)-one] |  |  | 0.3 to 30 | 0.01 to 1
3 | CN1CCN(c2c(Cl)cc(-c3cc(F)cc(-c4ccnc(N5CCNCC5)c4)c3O)cc2C#N)C1=O [Example 426, 5-chloro-5′-fluoro-2′-hydroxy-4-(3-methyl-2-oxoimidazolidin-1-yl)-3′-(2-(piperazin-1-yl)pyridin-4-yl)-[1,1′-biphenyl]-3-carbonitrile] |  |  | ≥ 3000 | > 100
4 | Cn1ccn(-c2ccc(-c3cc(F)cc(-c4ccnc(N5CCN(CC(=O)O)CC5)c4)c3O)cc2Cl)c1=O [Example 521, 2-(4-(4-(3′-chloro-5-fluoro-2-hydroxy-4′-(3-methyl-2-oxo-2,3-dihydro-1H-imidazol-1-yl)-[1,1′-biphenyl]-3-yl)pyridin-2-yl)piperazin-1-yl)acetic acid] |  |  | 30 to 300 | 1 to 10
5 | Cn1ccn(-c2ccc(-c3cc(F)cc(-c4cccc(C5=CCN(C(C)(C)C)CC5)c4)c3O)cc2Cl)c1=O [Example 951, 1-(3″-(1-(tert-butyl)-1,2,3,6-tetrahydropyridin-4-yl)-3-chloro-5′-fluoro-2′-hydroxy-[1,1′:3′,1″-terphenyl]-4-yl)-3-methyl-1H-imidazol-2(3H)-one] | 0.3 to 30 | 1 to 10 |  | 
6 | CC(=O)Nc1cc(-c2cccc(-c3ccc(N4CCN(C)C4=O)c(Cl)c3)c2O)cc(N2CCNCC2)n1 [Example 383, N-(4-(3′-chloro-2-hydroxy-4′-(3-methyl-2-oxoimidazolidin-1-yl)-[1,1′-biphenyl]-3-yl)-6-(piperazin-1-yl)pyridin-2-yl)acetamide] |  |  | 0.3 to 30 | 1 to 10
7 | CC(C)N1CCN(c2cc(-c3cc(F)cc(-c4ccc(-n5ccn(C)c5=O)c(Cl)c4)c3O)cn(C)c2=O)CC1 [Example 661, 5-(3′-chloro-5-fluoro-2-hydroxy-4′-(3-methyl-2-oxo-2,3-dihydro-1H-imidazol-1-yl)-[1,1′-biphenyl]-3-yl)-3-(4-isopropylpiperazin-1-yl)-1-methylpyridin-2(1H)-one] |  |  | 0.3 to 30 | 0.01 to 1
8 | Cn1ccn(-c2ccc(-c3cc(F)cc(-c4ccc(F)c(N5CCN(C(C)(C)C)CC5)c4)c3O)cc2Cl)c1=O [Example 719, 1-(3″-(4-(tert-butyl)piperazin-1-yl)-3-chloro-4″,5′-difluoro-2′-hydroxy-[1,1′:3′,1″-terphenyl]-4-yl)-3-methyl-1H-imidazol-2(3H)-one] |  |  | 0.3 to 30 | 0.01 to 1
9 | Cn1ccn(-c2ccc(-c3cc(F)cc(-c4ccnc(N5CCC6(CCC(=O)N6)C5)c4)c3O)cc2Cl)c1=O (centres unmarked) [Example 736, 7-(4-(3′-chloro-5-fluoro-2-hydroxy-4′-(3-methyl-2-oxo-2,3-dihydro-1H-imidazol-1-yl)-[1,1′-biphenyl]-3-yl)pyridin-2-yl)-1,7-diazaspiro[4.4]nonan-2-one] |  |  | 0.3 to 30 | 0.01 to 1
10 | COc1ncc(-c2cc(F)cc(-c3ccc(-n4ccn(C)c4=O)c(F)c3)c2O)cc1N1CCN(C(C)(C)C)CC1 [Example 939, 1-(3′-(5-(4-(tert-butyl)piperazin-1-yl)-6-methoxypyridin-3-yl)-3,5′-difluoro-2′-hydroxy-[1,1′-biphenyl]-4-yl)-3-methyl-1H-imidazol-2(3H)-one] | 0.3 to 30 | 1 to 10 |  | 
11 | CC(=O)Nc1ncc(-c2cc(F)cc(-c3ccc(N4CCN(C)C4=O)c(Cl)c3)c2O)cc1N1CCNCC1 [Example 389, N-(5-(3′-chloro-5-fluoro-2-hydroxy-4′-(3-methyl-2-oxoimidazolidin-1-yl)-[1,1′-biphenyl]-3-yl)-3-(piperazin-1-yl)pyridin-2-yl)acetamide] |  |  | 30 to 300 | 1 to 10
12 | CC(C)COc1cc(-c2cc(F)cc(-c3cccc(N4CCN(C(C)(C)C)CC4)c3)c2O)cc(Cl)c1-n1ccn(C)c1=O [Example 924, 1-(3″-(4-(tert-Butyl)piperazin-1-yl)-3-chloro-5′-fluoro-2′-hydroxy-5-isobutoxy-[1,1′:3′,1″-terphenyl]-4-yl)-3-methyl-1H-imidazol-2(3H)-one] | 30 to 300 | 10 to 100 |  | 
13 | CN1CCN(c2ccc(-c3cc(Cl)cc(-c4ccnc(N5CCNCC5)c4)c3O)cc2Cl)C1=O [Example 295, 1-(3,5′-dichloro-2′-hydroxy-3′-(2-(piperazin-1-yl)pyridin-4-yl)-[1,1′-biphenyl]-4-yl)-3-methylimidazolidin-2-one] |  |  | 30 to 300 | 1 to 10
14 | CC1=CCN(c2ccc(-c3cccc(-c4ccnc(N5CCNCC5)c4)c3O)cc2Cl)C1=O [Example 356, 1-(3-chloro-2′-hydroxy-3′-(2-(piperazin-1-yl)pyridin-4-yl)-[1,1′-biphenyl]-4-yl)-3-methyl-1H-pyrrol-2(5H)-one] |  |  | 30 to 300 | 1 to 10
15 | COCC(COC)N1CCN(c2cc(-c3cc(F)cc(-c4ccc(-n5ccn(C)c5=O)c(Cl)c4)c3O)ccn2)CC1 [Example 733, 1-(3-chloro-3′-(2-(4-(1,3-dimethoxypropan-2-yl)piperazin-1-yl)pyridin-4-yl)-5′-fluoro-2′-hydroxy-[1,1′-biphenyl]-4-yl)-3-methyl-1H-imidazol-2(3H)-one] |  |  | 30 to 300 | 1 to 10
16 | Cn1ccn(-c2ccc(-c3cc(F)cc(-c4cncc(N5CCNCC5)c4)c3O)cc2Cl)c1=O [Example 472, 1-(3-chloro-5′-fluoro-2′-hydroxy-3′-(5-(piperazin-1-yl)pyridin-3-yl)-[1,1′-biphenyl]-4-yl)-^3-methyl-1H-imidazol-2(3H)-one] |  |  | 0.3 to 30 | 1 to 10
17 | Cc1cc(-c2ccc(-n3ccn(C)c3=O)c(Cl)c2)c(O)c(-c2cccc(N3CCN(C(C)(C)C)CC3)c2)n1 [Example 916, 1-(4-(2-(3-(4-(tert-Butyl)piperazin-1-yl)phenyl)-3-hydroxy-6-methylpyridin-4-yl)-2-chlorophenyl)-3-methyl-1H-imidazol-2(3H)-one] | 0.3 to 30 | 0.01 to 1 |  | 
18 | CN1CCN(c2ccc(-c3cc(F)cc(-c4ccnc(N5CCNC(C(F)(F)F)C5)c4)c3O)cc2Cl)C1=O (centres unmarked) [Example 444, 1-(3-chloro-5′-fluoro-2′-hydroxy-3′-(2-(3-(trifluoromethyl)piperazin-1-yl)pyridin-4-yl)-[1,1′-biphenyl]-4-yl)-3-methylimidazolidin-2-one] |  |  | 300 to 3000 | 10 to 100
19 | Cc1ccc(-c2cc(F)cc(-c3ccc(-n4ccn(C)c4=O)c(Cl)c3)c2O)cc1N1CC(C)(O)C2(CC2)C1 (centres unmarked) [Example 854, 1-(3-Chloro-5′-fluoro-2′-hydroxy-338-(7-hydroxy-7-methyl-5-azaspiro[2.4]heptan-5-yl)-4″-methyl-[1,1′:3′,1″-terphenyl]-4-yl)-3-methyl-1H-imidazol-2(3H)-one] | 30 to 300 | 1 to 10 |  | 
20 | Cc1cc(-c2cncc(N3CCN[C@H](C)C3)c2)c(O)c(-c2ccc(-n3ccn(C)c3=O)c(Cl)c2)c1 [Example 508, (R)-1-(3-chloro-2′-hydroxy-5′-methyl-3′-(5-(3-methylpiperazin-1-yl)pyridin-3-yl)-[1,1′-biphenyl]-4-yl)-3-methyl-1H-imidazol-2(3H)-one] |  |  | 0.3 to 30 | 1 to 10
21 | CC(C)N1CCN(c2cc(-c3cc(F)cc(-c4ccc(-n5ccn(C)c5=O)c(Cl)c4)c3O)cc3[nH]ncc23)CC1 [Example 587, 1-(3-chloro-5′-fluoro-2′-hydroxy-3′-(4-(4-isopropylpiperazin-1-yl)-1H-indazol-6-yl)-[1,1′-biphenyl]-4-yl)-3-methyl-1H-imidazol-2(3H)-one] |  |  | 0.3 to 30 | 1 to 10
22 | Cn1ccn(-c2ccc(-c3cc(F)cc(-c4ccnc(N5CCN(CC6CCC6)CC5)c4)c3O)cc2Cl)c1=O [Example 646, 1-(3-chloro-3′-(2-(4-(cyclobutylmethyl)piperazin-1-yl)pyridin-4-yl)-5′-fluoro-2′-hydroxy-[1,1′-biphenyl]-4-yl)-3-methyl-1H-imidazol-2(3H)-one] |  |  | 0.3 to 30 | 0.01 to 1
23 | Cc1cc(-c2ccc(-n3ccn(C)c3=O)c(Cl)c2)c(O)c(-c2cccc(N3CCC4(CCCN4C(C)C)C3)c2)n1 (centres unmarked) [Example 981, 1-(2-chloro-4-(3-hydroxy-2-(3-(1-isopropyl-1,7-diazaspiro[4.4]nonan-7-yl)phenyl)-6-methylpyridin-4-yl)phenyl)-3-methyl-1H-imidazol-2(3H)-one] | 0.3 to 30 | 1 to 10 |  | 
24 | Cn1ccn(-c2ccc(-c3cc(F)cc(-c4cc(N5CCOCC5)c5cn[nH]c5c4)c3O)cc2Cl)c1=O [Example 590, 1-(3-chloro-5′-fluoro-2′-hydroxy-3′-(4-morpholino-1H-indazol-6-yl)-[1,1′-biphenyl]-4-yl)-3-methyl-1H-imidazol-2(3H)-one] |  |  | 30 to 300 | 1 to 10
25 | CC(=O)Nc1ncc(-c2cc(F)cc(-c3cccc(N4CCN(C(C)(C)C)CC4)c3)c2O)cn1 [Example 907, N-(5-(3′-(4-(tert-butyl)piperazin-1-yl)-5-fluoro-2-hydroxy-[1,1′-biphenyl]-3-yl)pyrimidin-2-yl)acetamide] | > 3000 | > 100 |  | 
